{"source": "patent US20240285808A1", "about": "“MOLECULAR PROBES FOR IN VIVO DETECTION OF ALDEHYDES” (The General Hospital Corporation, priority 2021, published 2024)", "key": {"[1]": {"biological_target": "bovine serum albumin (BSA) (Bos taurus, UniProt P02769)", "sequence (P02769 25-607)": "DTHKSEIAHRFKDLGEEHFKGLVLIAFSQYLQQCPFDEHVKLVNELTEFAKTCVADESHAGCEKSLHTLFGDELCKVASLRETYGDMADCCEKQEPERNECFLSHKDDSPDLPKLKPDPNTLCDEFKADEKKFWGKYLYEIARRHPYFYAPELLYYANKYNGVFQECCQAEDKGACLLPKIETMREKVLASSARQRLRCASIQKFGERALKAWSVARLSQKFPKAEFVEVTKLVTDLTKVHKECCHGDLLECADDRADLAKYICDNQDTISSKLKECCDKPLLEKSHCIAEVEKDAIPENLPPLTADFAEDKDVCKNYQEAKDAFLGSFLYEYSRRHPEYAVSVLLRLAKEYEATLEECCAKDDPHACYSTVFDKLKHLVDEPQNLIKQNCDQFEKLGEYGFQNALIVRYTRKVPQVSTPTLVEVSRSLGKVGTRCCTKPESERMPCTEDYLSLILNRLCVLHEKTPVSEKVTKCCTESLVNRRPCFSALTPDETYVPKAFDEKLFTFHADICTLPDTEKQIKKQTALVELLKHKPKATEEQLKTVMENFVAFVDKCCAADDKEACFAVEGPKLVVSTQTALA", "experiment": "Relaxivity measurements with BSA", "type": "binding", "details": "1.4 T, 37° C., BSA 10 mg/mL", "description": "(§1) BSA-ALD (10 mg/mL) or BSA (10 mg/mL) were treated for 24 hours at 37° C. with the corresponding Gd or Mn complex at a range of concentrations (0.01-0.2 mM), with a total volume of 300 μL maintained for all samples. After 24 hours, an aliquot of the solution (50 μL) was used for longitudinal (T1) relaxation measurements, recorded using a Bruker mq60 Minispec at 1.41 T and 37° C. Longitudinal (T1) relaxation times were measured via an inversion recovery experiment using 10 inversions of duration ranging between 0.05×T1 and 10×T1. Solutions (concentration range: 0.1 mM-1.0 mM) in PBS were run in parallel. To measure the relaxivity of BSA-bound species, sodium cyanoborohydride (10 mg) was added to the solution to irreversibly bind the probe to the protein. After a further 2h incubation at 37° C., protein-bound and protein-free solutions were separated by ultrafiltration. Then 200 μL PBS was added to the residue to dissolve the protein. Longitudinal (T1) relaxation times for the bounded species were measured using a Bruker mq60 Minispec at 1.41 T and 37° C. After the measurement, concentration of corresponding metal ion (Gd/Mn) in the residue and filter were both determined using an Agilent 8800 ICP-MS system. Relaxivity (r1) was determined from the slope of a plot of 1/T1 vs metal concentration for 5 concentrations."}, "[2]": {"experiment": "Relaxivity measurements in PBS", "type": "physicochemical", "details": "1.4 T, 37° C.", "description": "as §1"}, "[3]": {"biological_target": "T1, BSA-ALD (oxidized bovine serum albumin containing allysine aldehyde groups) (Bos taurus, UniProt P02769)", "T1 construct": "made in house; host or cells: no expression host: BSA oxidised chemically with sodium ascorbate, ferric chloride and H2O2, then desalted on PD-10", "T1 sequence (P02769 25-607)": "as above", "experiment": "Relaxivity measurements with BSA-Ald", "type": "binding", "description": "Preparation of Allysine Containing Bovine Serum Albumin, BSA-ALD:\nTo a solution of bovine serum albumin (BSA) (100 mg) dissolved in phosphate buffered saline (4 mL, pH 7.4, 0.25 mM), sodium ascorbate (20 mg), ferric chloride (120 μL, 10 mM) and 20 μL H2O2 (30% w) were added. The reaction was stirred at 37° C. for 24 hours, and sodium ascorbate (20 mg) was added repeatedly every 8 hours. After the reaction, protein was purified using PD-10 Sephadex G25 desalting columns (GE Healthcare), eluted with PBS. Protein concentration was assessed using the ‘BCA Protein Assay Kit’ (Thermo Scientific). Protein carbonyl concentration was determined by ‘Protein Carbonyl Content Assay Kit’ (Sigmal-Aldrich).\nAlternatively, preparation of BSA^Ald and binding of Gd^3+ probe to protein was carried out according to modified procedures. To a solution of bovine serum albumin (BSA) (100 mg) dissolved in phosphate buffered saline (4 mL, pH 7.4, 0.25 mM) was added sodium ascorbate (20 mg), ferric chloride (120 μL, 10 mM) and 20 μL H2O2 (30% w). The reaction was stirred at 37° C. for 24 h, and sodium ascorbate (20 mg) was added repeatedly every 8 h. After 24 h, the protein was purified using PD-10 Sephadex G25 desalting columns (GE Healthcare), eluted with PBS. Protein concentration was assessed using the ‘Micro BCA Protein Assay Kit’ (Thermo Scientific, 23235). Protein carbonyl concentration was determined by ‘Protein Carbonyl Content Assay Kit’ (Sigma-Aldrich, MAK094-1KT). […] The protein solutions were kept at a concentration of 20 mg/mL for further use.\nas §1"}, "[4]": {"experiment": "Biodistribution of manganese in healthy mice 60 minutes post-injection", "type": "in vivo, mouse", "details": "0.1 mmol/kg i.v.", "from_the_text": "(§2) To meet these requirements, the probes Mn-12, Mn-13 and Mn-14 were designed based on the stable Mn-1,4-DO2A chelate. […] This combination of stability, turn-on relaxivity, and low uptake in healthy liver indicate that Mn-12 is quite promising as a novel probe for liver fibrogenesis detection."}, "[5]": {"experiment": "Transmetalation experiment with Zn^2+ monitored by relaxivity", "type": "physicochemical", "details": "1 mM complex, 25 mM Zn^2+, 50 mM pH 6.0 MES buffer, 37° C., 1.4 T"}, "[6]": {"experiment": "H2^17O transverse relaxivity vs temperature (inner-sphere water number q)", "type": "physicochemical", "details": "temperature dependence of H2^17O transverse relaxivity", "from_the_text": "FIG. 24. […] The peak relaxivity is indicative of the number of inner-sphere water molecules (q).\nas §2"}, "[7]": {"tested_on": "liver of CCl4 injured mice", "type": "in vivo, mouse", "details": "CCl4 injured mice", "description": "CCl4 Liver Fibrosis Model:\nMale C57BL/6 mice (Charles River Laboratories, Wilmington, MA) were treated with carbon tetrachloride for 12 weeks (0.1 ml of 20% CCl4 in olive oil the first week, 30% the second week, and 40% from weeks 3-12) by oral gavage, 2-3 times per week. Control mice were fed vehicle (olive oil) only.\nA total of 53 C57BL/6 mice were included to study CCl4 induced hepatic fibrosis: • A. CCl4 for 12 weeks (n=20). Each mouse was imaged with probe 1 and then imaged again 24 hours later with probe 2. Probe 1 and Probe 2 were randomly chosen from GdDOTA, GdCHyd, Mn-12, Gd-9 and Gd-10. • B. Vehicle treated control (n=20). Each mouse was imaged with probe 1 and then imaged again 24 hours later with probe 2. Probe 1 and Probe 2 were randomly chosen from GdDOTA, Mn-12, GdCHyd, Gd-9, Gd-10. • C. CCl4 for 12 weeks (n=3, another 3 pair-wise comparison have been done in group A). Each mouse was imaged with probe 1 and then imaged again 24 hours later with probe 2. […] Each mouse was imaged with probe 1 and then imaged again 24 hours later with probe 2. Probe 1 and Probe 2 were randomly choosing from Gd-9 and Gd-10. • E. CCl4 for 12 weeks (n=3). Each mouse was imaged with Gd-9. After 24 hours, the same mouse was first injected with 1000 μmol/kg of Yb-9 and then injected with 100 μmol/kg of Gd-9 15 min after the Yb-9 injection.\nAnimals were anesthetized with isoflurane (1-2%) and placed in a specially designed cradle with body temperature maintained at 37° C. The inhaled isoflurane level was adjusted to maintain a respiration rate of 60±5 breaths per minute. The tail vein was cannulated for intravenous (i.v.) delivery of the contrast agent while the animal was positioned in the scanner. Imaging was performed at 4.7 T using a small bore animal scanner with a custom-built volume coil. Mice were imaged with a dose of 100 μmol/kg from 30 mM stock solution of Gd or Mn complex.\nFor mice liver imaging, a series of baseline images (3D T1 weighted fast low angle shot magnetic resonance imaging (FLASH)) were first acquired (repetition time/echo time=15/2 ms; flip angle, 30°; field of view, 48×30 mm^2; matrix size, […]; slice thickness, 0.25 mm; acquisition time, 3 minutes 20 seconds), then a bolus of Gd or Mn complex was administered i.v. and imaging performed for a period of 45 min p.i. with the repetition acquisition of 3D T1 weighted FLASH sequences. Following the imaging session, animals were sacrificed (75 min p.i.) and liver tissue was subjected to histopathologic analysis.\nFor liver imaging analysis, a region of interest (ROI) was manually traced encompassing the liver parenchyma while avoiding major blood vessels. A second ROI was placed on the dorsal muscle visible in the same image slice to quantify the signal intensity in the muscle for comparison. Seven ROIs were placed in the field of view without any tissue (air) to measure the variation in background signal. More than 20 axial slices per mouse across the entire liver were analyzed in this fashion. […] Contrast to noise ratio (CNR) was calculated by measuring the difference in signal intensity (SI) between liver and muscle and normalizing to the standard deviation of the signal in the air, eq 21. ΔCNR was calculated by subtracting CNR measured prior to probe injection (CNRPre) from CNR measured after injection (CNRPost), eq 22. […]"}, "[8]": {"experiment": "Reaction rates with butyraldehyde measured by HPLC-ICP-MS (Method B)", "type": "physicochemical", "details": "Method b: butyraldehyde 100 μM, probe 25 μM, pH 7.40", "description": "Method B: Reaction Rates of Compounds with Butyraldehyde Measured by HPLC-ICP-MS\nThe reactions were conducted in pH 7.40 phosphate-buffered with butyraldehyde concentration of 100 μM and hydrazine probes at 25 μM. Concentrations of unreacted starting material and condensation products were determined at 10 min time intervals over 2 hours based on their relative integrations. The values were fit to a standard first order rate constant linear equation and the rate constant was extracted from the slope.\nReaction with Butyraldehyde Monitored by HPLC-ICP-MS\nReactions were conducted in pH 7.4 phosphate-buffered saline with butyraldehyde concentration of 100 μM and hydrazine probes at 25 μM. Concentrations of unreacted starting material and condensation products were determined based on their relative integrations at 12 min time intervals over 2 hours."}}, "note": "Values joined by “and” are separate entries in the source; they are usually repeats but may differ in a detail not shown here. Identical values can stand only once. “Also recorded” adds a separate entry of the source.", "data": [{"smiles": "NN1CCN(C(=O)CCCN2CCN(CCCC(=O)N3CCN(N)CC3)CCN(CC(=O)[O-])CCN(CC(=O)[O-])CC2)CC1.[Mn+2]", "note": "[Mn-12]", "values": [{"measurement": "r1, +BSA", "setting": "[1]", "value": 2.2, "unit": "mM⁻¹ s⁻¹"}, {"measurement": "r1, PBS", "setting": "[2]", "value": 1.6, "unit": "mM⁻¹ s⁻¹"}, {"measurement": "turn-on in relaxivity upon binding to allysine (BSA-Ald bound vs unbound)", "setting": "[3]", "value": "4 fold and ~5 fold"}, {"measurement": "r1, +BSA-Ald", "setting": "[3]; 1.4 T, 37° C., BSA-Ald 10 mg/mL", "value": 4.5, "unit": "mM⁻¹ s⁻¹"}, {"measurement": "r1, Bound to BSA-Ald", "setting": "[3]; 1.4 T, 37° C., protein-bound species after NaBH3CN and ultrafiltration", "value": 7.7, "unit": "mM⁻¹ s⁻¹"}, {"measurement": "Mn liver levels in healthy mice", "setting": "[4]", "value": "little accumulation in the healthy liver; also recorded: baseline Mn levels in liver"}, {"measurement": "kinetic inertness to Mn^2+ release", "setting": "[5]", "value": "more inert to Mn^2+ release than Mn-1,4-DO2A; also recorded: increased kinetic stability of Mn-12 compared to unmodified Mn-1,4-DO2A"}, {"measurement": "inner-sphere number of water molecule (q)", "setting": "[6]", "value": 0.44}, {"measurement": "liver enhancement", "setting": "[7]; 45 min p.i.", "value": "strong signal enhancement"}, {"measurement": "ΔCNR (liver to muscle)", "setting": "[7]; 45 min post injection, 100 μmol/kg i.v., group mean", "value": "1.5 ± 0.8"}, {"measurement": "k (second order rate constant)", "setting": "[8]", "value": 4.5, "unit": "M⁻¹ s⁻¹"}]}]}
